Marks after values point to notes of the source that are not given here.
Experiments:
[1] = tested on: outbred male rats; experiment: conflict Vogel test (punished licking of water); format: in vivo; conditions: M ± mx
Description: The study of anxiolytic activity of chosen compounds was carried out in the experiments with outbred male rats weighing 180-200 g in standard conflict Vogel' procedure [Voronina T. A. et al., in: “Phenazepam”, Naukova Dumka, Kiev, 1982, p.89, 93, 146]. The main aim of the initial step of experiments was the training of rats to develop the feeling of thirst with following experience of water licking from bottle in the experimental chamber. The animals were deprived of water for 24 hours and were placed in the test chamber for 5-min adaptation period during which they had free access to the drinking bottle. After another 24 h deprivation period the rats were placed again in the test chamber and were allowed to drink water for 5 sec. Immediately afterwards drinking attempts were punished by electric shock (0,5 mA). Under this collision of drinking and protective reflexes the extremal situation was developed. In this situation the anxiety of punishment prevented the licking process. The number of shocks received throughout a 5-min experimental session was recorded.

[2] = tested on: male outbred mice; experiment: potentiation of sleep induced by sodium thiopental; format: in vivo
Description: The possible hypnotic effects of choosen drugs was estimated according to method of potentiation of sleep induced by sodium thiopental. The male outbred mice weighing 20-25 g were injected i.p. with sodium thiopental at dose of 70 mg/kg. Two parameters were estimated: latent time of sleeping and duration of sleep. The used compounds were administered i.p. 30 min prior injection of sodium thiopental.

[3] = acute toxicity after per os administration; conditions: mouse, in vivo, oral; outbred mice, per os, 1% starch suspension, Litchfield-Wilcocson
Description: (§1) The acute toxicity was measured in outbred mice after per os administration of used drugs in the 1% starch suspension. The lethal doses were calculated according to Litchfield-Wilcocson' method. […].

[4] = tested on: outbred mice; experiment: acute toxicity after per os administration; conditions: mouse, in vivo
Description: as §1

[5] = tested on: outbred male mice; experiment: rotarod test (myorelaxant activity); format: in vivo; conditions: for time of remaining on the rotarod: cut-off 120 sec
Description: The myorelaxant activity of choosen compounds were studied in the outbred male mice weighing 22-25 g in rotarod test [Voronina T. A. et al., in: “Phenazepam”, Naukova Dumka, Kiev, 1982, p.145]. The animals were placed on the horizontal rotarod (D=2 cm) calibrated for a fixed speed of 4 rpm. According to the rotarod experimental protocol, normal motor coordination was defined by the ability of the animals to remain on the rotarod for an arbitrarily selected time of 120 sec.

[6] = tested on: ischemized myocardium of cats; experiment: contractile and pump functions and ATP level of ischemized myocardium (20-40 min occlusion, reperfusion); format: in vivo
Description: The effects of this compound on contractile and pump functions of ischemized myocardium were studied in cats weighing 3,0-4,5 kg under anesthesia with nembutal (40 mg/kg). […] The phase curve of blood flow in ascending part of the aortic arch was recorded with electromagnetic blood flowmeter MFV-1200 (“Nihon-Kohden”, Japan). Hemodynamics, heart activity values and the number of arrhythmia were calculated. In the experiments with 40 min ischemia immediately after 60 min the intact and ischemized zones of left ventricle were dissected and freezed in liquid nitrogen. ATP level was measured using hexokinase method in these zones. 4 series of experiments (2-control and 2-basic) were conducted in 12 cats in each. For statistical calculation the t-Student and Fisher's precision test were used.

[7] = tested on: ischemized myocardium of cats; experiment: ST-segment elevation during 5 min occlusions of coronary artery (acute coronary deficiency); format: in vivo; conditions: for change in mean elevation of ST-segment vs control occlusion: cats, 1.0 mg/kg i.v.
Description: These experiments were conducted in cats weighing 2,5-4,0 kg under anasthesia by i.v. injection of nembutal (40 mg/kg) in open chest conditions. Epicardium electrogram in 3-4 leads was registered in “Mingograph-81”. The value of mean elevation of ST-segment during 5 min occlusions of anterior left descending coronary artery with 15 min reperfusions between them was the main index of intensity of reversible ischemized damage of myocardium.
The statistical calculation was carried out with non-parametric Wilcocson method for associated variants.

[8] = in vivo; conditions: rat, iv
[9] = 0.01 mg/kg i.p. 30 min before thiopental 70 mg/kg i.p.
[10] = 0.1 mg/kg i.p. 30 min before thiopental 70 mg/kg i.p.
[11] = 1.0 mg/kg i.p. 30 min before thiopental 70 mg/kg i.p.
[12] = 5.0 mg/kg i.p. 30 min before thiopental 70 mg/kg i.p.
[13] = 10.0 mg/kg i.p. 30 min before thiopental 70 mg/kg i.p.
[14] = 40 min occlusion, 60 min reperfusion

## CCOc1ccc2nc(SCCN3CCOCC3)[nH]c2c1 [XII, 2-[2-(Morpholino)ethylthio]-5-ethoxybenzimidazole]
[1]; 1.0 mg/kg i.p.
  number of punished lickings (shocks received in 5-min session): 15.3 ± 3.4
[1]; 5.0 mg/kg i.p.
  number of punished lickings (shocks received in 5-min session): 19.0 ± 2.5
[1]; 10.0 mg/kg i.p.
  number of punished lickings (shocks received in 5-min session): 15.4 ± 2.5
[1]; 20.0 mg/kg i.p.
  number of punished lickings (shocks received in 5-min session): 28.0 ± 5.8
[2]; [9]
  duration of sleep after sodium thiopental: 76.4 ± 16.7 min
  latent time of sleep after sodium thiopental: 1.86 ± 0.27 s
[2]; [10]
  duration of sleep after sodium thiopental: 54.5 ± 9.9 min
  latent time of sleep after sodium thiopental: 1.94 ± 0.18 s
[2]; [11]
  duration of sleep after sodium thiopental: 67.9 ± 4.3 min
  latent time of sleep after sodium thiopental: 2.78 ± 0.17 s
[2]; [12]
  duration of sleep after sodium thiopental: 71.7 ± 14.6 min
  latent time of sleep after sodium thiopental: 2.21 ± 0.17 s
[2]; [13]
  duration of sleep after sodium thiopental: 92.4 ± 9.9 min
  latent time of sleep after sodium thiopental: 2.28 ± 0.24 s
[3]
  LD50: 1160 mg/kg
[4]
  toxicity, conclusion in words: not toxic
[5]; 0.01 mg/kg
  time of remaining on the rotarod: 120.0 + 0 sec
[5]; 0.1 mg/kg
  time of remaining on the rotarod: 120.0 + 0 sec
[5]; 1.0 mg/kg
  time of remaining on the rotarod: 120.0 + 0 sec
[5]; 5.0 mg/kg
  time of remaining on the rotarod: 120.0 + 0 sec
[5]; 10.0 mg/kg
  time of remaining on the rotarod: 120.0 + 0 sec
[5]; 20.0 mg/kg
  time of remaining on the rotarod: 118.8 ± 1.6 s
[5]; 50.0 mg/kg
  time of remaining on the rotarod: 111.3 ± 7.5 s
[5]; dose range 0,01 mg/kg-50 mg/kg
  effect on motor coordination in rotarod test, in words: no effect on the motor coordination

## CCOc1ccc2nc(SCCN(CC)CC)[nH]c2c1 [Compound IX, 2-[2-(Diethylamino)ethylthio]-5-ethoxybenz-imidazole]
[6]; 20 min occlusion, 30 min reperfusion
  effect on number of arrhythmias during occlusion and reperfusion, in words: decreased the number of arrhythmias
[6]; 20 min occlusion, 30 min reperfusion, 1,0 mg/kg bolus +50 mcg/kg/min i.v.
  effect on cardiac output, in words: prevented the decrease in cardiac output
[6]; 20 min occlusion, 30 min reperfusion, 1,0 mg/kg bolus +50 mcg/kg/min i.v. during 30 min
  effect on inhibition of contractile function of myocardium induced by ischemic damage, in words: significantly prevents the inhibition of contractile function of myocardium
[6]; [14]
  effect on ATP level in intact zones of myocardium, in words: did not change it in the intact zones
  effect on cardiac output, in words: no effect on changes in cardiac output
  effect on stroke volume, in words: prevented the decrease in stroke volume
[6]; 40 min occlusion, 60 min reperfusion, hexokinase method
  effect on ATP level in ischemized myocardium, in words: increased the ATP level in the ischemized myocardium
[6]; critical and mild ischemia
  effect on number of arrhythmias induced by occlusion and reperfusion, in words: did not reduced the number of arrhythmias
[6]; critical ischemia: 40 min occlusion, 60 min reperfusion
  effect on inhibition of contractile function of heart, in words: prevented the inhibition of contractile function of heart
[7]; occlusion 20 min after injection, 15 sec of reperfusion
  change in mean elevation of ST-segment vs control occlusion: −0.8* mv
[7]; occlusion 20 min after injection, 30 sec of occlusion
  change in mean elevation of ST-segment vs control occlusion: −0.7 mv
[7]; occlusion 20 min after injection, 2 min of occlusion
  change in mean elevation of ST-segment vs control occlusion: −1.4* mv
[7]; occlusion 20 min after injection, 3 min of occlusion
  change in mean elevation of ST-segment vs control occlusion: −1.4* mv
[7]; occlusion 20 min after injection, 5 min of occlusion
  change in mean elevation of ST-segment vs control occlusion: −1.2 mv
[7]; occlusion 40 min after injection, 15 sec of reperfusion
  change in mean elevation of ST-segment vs control occlusion: −1.0* mv
[7]; occlusion 40 min after injection, 30 sec of occlusion
  change in mean elevation of ST-segment vs control occlusion: −0.5 mv
[7]; occlusion 40 min after injection, 1 min of occlusion
  change in mean elevation of ST-segment vs control occlusion: −0.5* mv
[7]; occlusion 40 min after injection, 2 min of occlusion
  change in mean elevation of ST-segment vs control occlusion: −1.0* mv
[7]; occlusion 40 min after injection, 3 min of occlusion
  change in mean elevation of ST-segment vs control occlusion: −1.2 mv
[7]; occlusion 40 min after injection, 5 min of occlusion
  change in mean elevation of ST-segment vs control occlusion: −1.0 mv
[7]; occlusion immediately after injection, 15 sec of reperfusion
  change in mean elevation of ST-segment vs control occlusion: −1.2* mv
[7]; occlusion immediately after injection, 30 sec of occlusion
  change in mean elevation of ST-segment vs control occlusion: −1.8** mv
[7]; occlusion immediately after injection, 1 min of occlusion
  change in mean elevation of ST-segment vs control occlusion: −1.9** mv
[7]; occlusion immediately after injection, 2 min of occlusion
  change in mean elevation of ST-segment vs control occlusion: −2.4** mv
[7]; occlusion immediately after injection, 3 min of occlusion
  change in mean elevation of ST-segment vs control occlusion: −1.9** mv
[7]; occlusion immediately after injection, 5 min of occlusion
  change in mean elevation of ST-segment vs control occlusion: −2.2** mv
[7]; cats, 1,0 mg/kg i.v.
  duration of anti-ischemic effect after injection: 40 min
  effect on mean elevation of ST-segment during 5 min occlusion, in words: decreased the mean elevation of ST-segment
[8]
  LD50: 31.5 mg/kg
